From PMC8958511, “Development of Sulfamoylated 4-(1-Phenyl-1H-1,2,3-triazol-4-yl)phenol Derivatives as Potent Steroid Sulfatase Inhibitors for Efficient Treatment of Breast Cancer” (Journal of Medicinal Chemistry, 2022)
Where “and” joins values, the source holds several entries; their conditions need not be identical. Equal values may be shown once. Read-outs that look alike come from different tables or passages of the source.

Columns and labels:
[1] = biological target: T1, STS in MCF-7 cells (Homo sapiens, UniProt P08842); assay: radioisotope cellular assay with [3H]E1S in MCF-7 cells; assay type: cell-based; settings: for remaining activity at 0.001 µM / remaining activity at 0.01 µM / remaining activity at 0.1 µM: MCF7, 20 h; for remaining activity at 0.001 µM: read-out: residual STS activity [%] 1 nM; for remaining activity at 0.01 µM: read-out: residual STS activity [%] 10 nM; for remaining activity at 0.1 µM: read-out: residual STS activity [%] 100 nM
T1 construct: The radioisotope cellular assay was performed using the MCF-7 cell line; endogenous in cells; host or cells: MCF-7
T1 sequence (P08842 22-583): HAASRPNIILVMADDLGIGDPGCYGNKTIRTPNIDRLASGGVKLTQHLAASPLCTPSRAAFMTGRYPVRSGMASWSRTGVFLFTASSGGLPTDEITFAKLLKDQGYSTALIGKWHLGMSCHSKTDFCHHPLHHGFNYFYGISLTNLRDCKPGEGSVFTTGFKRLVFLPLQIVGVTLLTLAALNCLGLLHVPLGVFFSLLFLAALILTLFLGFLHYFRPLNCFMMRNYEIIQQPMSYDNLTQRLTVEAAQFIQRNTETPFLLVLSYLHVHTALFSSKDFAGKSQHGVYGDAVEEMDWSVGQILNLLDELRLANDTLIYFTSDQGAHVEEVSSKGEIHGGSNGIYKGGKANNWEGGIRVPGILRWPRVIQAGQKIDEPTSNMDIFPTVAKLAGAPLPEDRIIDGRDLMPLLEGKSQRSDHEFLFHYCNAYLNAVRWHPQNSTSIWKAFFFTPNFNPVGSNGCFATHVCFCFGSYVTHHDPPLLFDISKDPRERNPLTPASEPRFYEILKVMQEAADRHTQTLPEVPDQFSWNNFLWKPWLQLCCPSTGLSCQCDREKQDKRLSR
Procedure: All compounds were initially tested for their in cell inhibitory action at a 100 nM concentration.
The inhibitory potency of the synthesized compounds was examined in two ways, including an enzymatic assay and the radioisotope cellular test. […] The radioisotope cellular assay was performed using the MCF-7 cell line in the presence of radiolabeled [^3H]E1S.
The evaluation of the inhibitory effect of each compound with breast cancer cells was performed using a previously described method (27) with some modifications. MCF-7 cells were maintained in Dulbecco’s modified Eagle medium supplemented with 10% fetal bovine serum and cultured in the above medium until 80% confluence. […] After incubation, the medium (0.45 mL) was collected from each well, and the product formed by STS hydrolysis was extracted with toluene (4 mL). STS activity was measured using a MicroBeta radioluminometer (PerkinElmer). Assays with MCF-7 cells were carried out in triplicate.

[2] = tested on: STS; parameters: method as in earlier work; settings: STS inhibitory effect, system not given; ref 14−16; cited from earlier work
[3] = biological target: T2, STS isolated from the human placenta (Homo sapiens, UniProt P08842); assay: radioisotope enzymatic assay with STS isolated from human placenta and [3H]E1S; assay type: biochemical; settings: read-out: residual STS activity [%]
T2 construct: radioisotope enzymatic assay using STS isolated from the human placenta; from tissue; host or cells: human placenta
T2 sequence (P08842 22-583): T1 sequence (P08842 22-583)
Procedure: The inhibitory potency of the synthesized compounds was examined in two ways, including an enzymatic assay and the radioisotope cellular test. The enzymatic assay was performed using the STS enzyme isolated from human placenta and using radiolabeled [^3H]E1S as a substrate.
The total volume of the reaction mixture was 100 μL. […] After incubation, the reaction mixture (90 μL) was collected from each well, and the product formed by STS hydrolysis was extracted with toluene (0.5 mL). STS activity was measured using a MicroBeta radioluminometer (PerkinElmer). Enzymatic assays were carried out in triplicate.

[4] = assay type: in vivo; settings: Table S1, MTD study, 50 mg/kg
Procedure: The mice were thus weighed, and their general health was observed. […] At the end of the study, the mice were sacrificed by dislocation of the cervical vertebrae, and the internal organs were examined macroscopically.
The mice were weighed, and their general health was observed. […] At the end of the MTD study, the autopsy was performed, and the internal organs (liver, kidney, and spleen) were weighed and macroscopically assessed.

[5] = tested on: 67NR mouse mammary tumor cells; assay: antitumor activity in 67NR orthotopic mouse breast carcinoma model; assay type: in vivo, BALB/c mice; settings: 50 mg/kg b.w. per os; for tumor growth inhibition (TGI): 5 days a week, 67NR tumor, N = 9, vs control group
Procedure: The tumor volume (TV) and body weight were measured three times a week. Results for individual groups are reported in Figure S5, Supporting Information. Based on TV data, the tumor growth inhibition (TGI) was calculated for groups that received compounds and compared to that of the control group. […] The body weight of the treated animals was monitored during the study, and the body weight change (BWC) index was calculated (Figure 4). […] Body weight loss was observed between D2 and D11 and reached 4.5% at most.
The growth of tumors has been observed.

[6] = biological target: T3, STS activity in murine livers and tumors (Mus musculus, UniProt P50427); assay: determination of STS activity in murine livers and tumors of treated mice; settings: for Residual STS activity [%] Liver: liver tissue of mice treated per os at 50 mg/kg b.w.; for Residual STS activity [%] Tumor: tumor tissue of mice treated per os at 50 mg/kg b.w.
T3 sequence (P50427 23-624): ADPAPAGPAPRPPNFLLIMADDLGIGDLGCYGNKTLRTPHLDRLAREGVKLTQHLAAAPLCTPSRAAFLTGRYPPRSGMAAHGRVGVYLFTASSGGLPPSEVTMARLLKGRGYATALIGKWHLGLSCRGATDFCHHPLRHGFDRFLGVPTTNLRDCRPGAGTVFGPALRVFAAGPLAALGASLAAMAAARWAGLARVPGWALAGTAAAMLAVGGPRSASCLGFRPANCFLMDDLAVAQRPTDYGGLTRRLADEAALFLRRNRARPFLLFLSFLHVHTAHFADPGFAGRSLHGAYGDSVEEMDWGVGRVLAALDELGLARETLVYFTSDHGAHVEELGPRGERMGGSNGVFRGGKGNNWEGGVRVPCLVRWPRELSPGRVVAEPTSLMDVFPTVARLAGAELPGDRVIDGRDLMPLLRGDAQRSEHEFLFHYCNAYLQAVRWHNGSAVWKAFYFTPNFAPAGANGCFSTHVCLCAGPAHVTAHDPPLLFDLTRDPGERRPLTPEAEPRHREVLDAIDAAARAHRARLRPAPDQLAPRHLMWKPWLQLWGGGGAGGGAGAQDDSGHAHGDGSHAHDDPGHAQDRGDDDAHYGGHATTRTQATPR
Procedure: Then, the samples were subjected to sonication in five cycles of 10 s each and centrifuged for 10 min at 14 000g to pellet the tissue debris. Total protein concentrations were determined in the obtained lysates using the Bradford method, and 100 μg of the total protein was used for each reaction as a source of STS activity. […] E1S (4 × 10^4 Bq, 3 nM) and 20 mM Tris-HCl, pH 7.4. The volume of the reaction mixtures was adjusted to 100 μL with water. After incubation, 60 μL of each reaction mixture was collected, and the product formed by STS hydrolysis was extracted with toluene (0.5 mL). STS activity was measured using a MicroBeta radioluminometer (PerkinElmer). Assays were carried out in triplicate.

[7] = blood morphology, blood biochemistry and organ weights of mice with 67NR tumor; settings: for spleen weight: 50 mg/kg b.w. per os; for HCT / HGB / MCH / MCHC / MCV / MPV / PCT / PDW / PLT / RBC / RDW: Table S2, mice with 67NR tumor, 50 mg/kg
Procedure: At the end of the study, the autopsy of the animals was performed: blood was collected for further analyses of the morphology (Table S2, Supporting Information) and biochemistry (Table S3 and Figure S6, Supporting Information) and for the determination of the plasma estradiol level using the ELISA method.
Mice were injected orthotopically (in the mammary gland fat pad) with 67NR mouse mammary tumor cells derived from in vitro culture (1.5 × 10^5 cells/0.05 mL Hanks fluid/mouse). The growth of tumors has been observed. […] Animals were observed during the next 17 days and euthanized. During observation, body weight and tumor growth were monitored three times a week. The volume of the tumors was calculated according to the following formula: TV = a^2·b/2 [mm^3], (where: a—width and b—length of the tumor). Blood, tumor tissue, and liver were harvested during autopsy for further analyses. Blood aliquots (about 500 μL) were collected in EDTA containing vials for morphology analysis (Mythic 18 analyzer, Orphee), and then, the plasma was collected (centrifuged at 2500g for 15 min at 4 °C within 1 h after collection) for biochemical parameter analysis (Cobas c111, Roche).

[8] = MCF-7 cells, substrate [3H]E1S, 3 nM
[9] = Table S3, plasma, mice with 67NR tumor, 50 mg/kg per os, N=9

With `NS(=O)(=O)Oc1ccc2c3c(c(=O)oc2c1)CCCCC3` [Irosustat, reference compound] the “residual STS activity [%] 1 nM” value ([1]; MCF-7 cells, 1 nM inhibitor, substrate [3H]E1S, 3 nM, triplicate) was 16.8% and 16.8 ± 0.5%, the “residual STS activity [%] 10 nM” value ([1]; MCF-7 cells, 10 nM inhibitor, substrate [3H]E1S, 3 nM, triplicate) was 12.9% and 12.9 ± 0.77% and the “residual STS activity [%] 100 nM” value ([1]; MCF-7 cells, 100 nM inhibitor, substrate [3H]E1S, 3 nM, triplicate) was 2.4% and 2.4 ± 0.07%. For the same molecule, the IC50 [2] was 8 nM.
In the case of `NS(=O)(=O)Oc1ccc(-c2cn(-c3cccc(Cl)c3)nn2)cc1` [4a, 4-(1-(3-Chlorophenyl)-1H-1,2,3-triazol-4-yl)phenyl Sulfamate], the remaining activity at 0.5 µM [3] is reported as 19.5 ± 0.97%, the remaining activity at 0.001 µM [1] is reported as 38.2% and the remaining activity at 0.01 µM [1] is reported as 28.1 ± 1.12%. The remaining activity at 0.1 µM [1] was 2.4 ± 0.07%, the IC50 [1, 8] was 1.9 ± 0.06 nM and the GRAN [4] was 13,2±3,6%. For the same molecule, the HCT [4] was 41±0,2%, the HGB [4] was 15,1±0,2 g/dL and the LIMF [4] was 83,5±4,1%. For the same molecule, the MCH [4] was 17,3±0,3 pg, the MCHC [4] was 36,9±0,5 g/dL and the MCV [4] was 46,8±0,2 fL. The MON [4] was 3,3±0,6%, the PLT [4] was 518±49 10x3/uL and the RBC [4] was 8,8±0,1 10x6/uL. For the same molecule, the RDW [4] was 17,9±0,6%, the WBC [4] was 4,5±0,3 10x3/uL and the “body weight of treated tumor-bearing mice (observation)” value [5] was “A body weight increase was observed”. The “tumor growth inhibition (TGI)” value [5] was 47%, the “mice responded to the treatment” value ([5]; nine mice/group) was 7 mice and the “mice with much larger tumor than the mean control volume” value ([5]; nine mice/group) was 1 mice. The “mice with tumor volume reduced by approx. 50% compared to the TV control” value ([5]; nine mice/group) was 5 mice, the “Residual STS activity [%] Liver” value [6] was 12,1% and the “Residual STS activity [%] Tumor” value [6] was 5,8%. The spleen weight ([7]; mice with 67NR tumor) was “Significantly smaller spleens weights”, the HCT [7] was 35,9±3,2% and the HGB [7] was 13,5±1,1 g/dL. For the same molecule, the MCH [7] was 17,7±0,5 pg, the MCHC [7] was 37,6±0,7 g/dL and the MCV [7] was 47,1±1 fL. For the same molecule, the MPV [7] was 4,9±0,1 fL, the PCT [7] was 0,250±0,03% and the PDW [7] was 24,9±3 fL. The PLT [7] was 503,3±59,8 x103/uL, the RBC [7] was 7,6±0,8 x106/uL and the RDW [7] was 18±0,5%. The ALT [7, 9] was 27,3±3,9 U/L, the AST [7, 9] was 91,7±15,4 U/L and the creatinine [7, 9] was 5,75±1,52 umol/L. The urea [7, 9] was 7,92±0,66 mmol/L.
Work on `NS(=O)(=O)Oc1ccc(-c2cn(-c3cccc(F)c3)nn2)cc1` [5g] yielded a remaining activity at 0.5 µM [3] of 37.9 ± 1.9%, a remaining activity at 0.001 µM [1] of 57.3 ± 3.44% and a remaining activity at 0.01 µM [1] of 1%. For the same molecule, the remaining activity at 0.1 µM [1] was 1 ± 0.04%, the IC50 [1, 8] was 1.69 ± 0.08 nM and the GRAN [4] was 12,4±1,7%. For the same molecule, the HCT [4] was 41,1±0,5%, the HGB [4] was 15,2±0,2 g/dL and the LIMF [4] was 84,3±2,3%. The MCH [4] was 17,2±0,2 pg, the MCHC [4] was 36,7±0,2 g/dL and the MCV [4] was 46,9±0,3 fL. The MON [4] was 3,4±0,6%, the PLT [4] was 522±33 10x3/uL and the RBC [4] was 8,8±0,01 10x6/uL. The RDW [4] was 17,4±0,3%, the WBC [4] was 4,9±1,3 10x3/uL and the “tumor growth inhibition (TGI)” value [5] was 42%. For the same molecule, the “mice responded to the treatment” value ([5]; nine mice/group) was 8 mice, the “mice with tumor volume reduced by approx. 50% compared to the TV control” value ([5]; nine mice/group) was 5 mice and the “Residual STS activity [%] Liver” value [6] was 13,6%. For the same molecule, the “Residual STS activity [%] Tumor” value [6] was 5,2%, the spleen weight ([7]; mice with 67NR tumor) was “Significantly smaller spleens weights” and the HCT [7] was 35±2,4%. The HGB [7] was 13,5±0,9 g/dL, the MCH [7] was 18,3±0,9 pg and the MCHC [7] was 38,6±0,6 g/dL. The MCV [7] was 47,4±2,8 fL, the MPV [7] was 5±0,1 fL and the PCT [7] was 0,255±0,04%. The PDW [7] was 26,9±4,8 fL, the PLT [7] was 508,6±69 x103/uL and the RBC [7] was 7,4±0,7 x106/uL. For the same molecule, the RDW [7] was 19,1±1,5%, the AST [7, 9] was 102,2±23,1 U/L and the creatinine [7, 9] was 6,51±1,49 umol/L. The urea [7, 9] was 8,83±1,32 mmol/L.
